Test system: HIV-1 LAI
Assay: microbe, parasite or virus in culture
Details: for EC50: Human immunodeficiency virus 1, MT2, 120 h; for Combination Indices at % HIV Inhibition (Confidence Interval) 50%: 50% HIV inhibition; for Combination Indices at % HIV Inhibition (Confidence Interval) 50% / Combination Indices at % HIV Inhibition (Confidence Interval) 75% / Combination Indices at % HIV Inhibition (Confidence Interval) 90%: 95% CI in parenthesis; for Combination Indices at % HIV Inhibition (Confidence Interval) 75%: 75% HIV inhibition; for Combination Indices at % HIV Inhibition (Confidence Interval) 90%: 90% HIV inhibition; for Overall Result: two-drug combination with Compound 1, all ratios and effect levels, MT-2/HIV-1 LAI, RT assay
Experimental: Virus and cell lines. The T-cell lines, MT-2 and PM-1 were obtained through the AIDS Research and Reference Reagent Program, NIAID, and were contributed by Dr. D. Richman and Dr. R. Gallo, respectively. Both cell lines were cultured in RPMI 1640 medium supplemented with 10% fetal bovine serum, 2 mM L-glutamine and sub-cultured twice a week. The LAI strain of HIV-1 was obtained from the Fred Hutchinson Cancer Research Center, and the Bal strain was from NIH. Both virus stocks were amplified and titered in MT-2 cells (LAI) and PM-1 cells (Bal) using a virus infectivity assay.
Drug Susceptibility and Cytotoxicity Assays. For drug susceptibility assays, MT-2 cells were infected with HIV-1 LAI (or PM-1 cells with HIV-1 Bal) at an MOI of 0.005, and seeded into 96-well microtiter plates (0.1×10^6 cells/ml) containing serial dilutions of test compounds. […] Each drug ratio consisted of an array of 3-fold serial dilutions, and was performed in quadruplicate. The plates were incubated at 37° C./5% CO2. The MT-2 cells infected with HIV-1 LAI were incubated for 5 days. On day-five post-infection, 20 μl from each well was harvested and quantitated by a reverse transcriptase (RT) assay, or in samples involving non-nucleoside RT inhibitors, an MTS assay. The PM-1 cells infected with HIV-1 Bal and used for studying the combinations with CCR5 inhibitors were incubated for six days. On day-six post-infection, 20 μl from each well was harvested, 20- and 50-fold diluted and quantitated by p24 assay. Cytotoxicity assays were performed using uninfected cells, exposed to the same drug combinations, and incubated for six days. Cell viability was determined by an XTT assay. The CC50 values were calculated by using the exponential form of the median effect equation as mentioned below for calculation of EC50.
Analysis of Drug Combination Effects. For determination of CI values, drugs were diluted in a fixed ratio and multiple ratios were analyzed. The drug serial dilutions spanned a range of concentrations near the EC50 value of each compound, so that equivalent antiviral activities could be compared. Concentration-response curves were estimated for each individual drug and every combination using the median-effect equation. The equation was fit using a nonlinear regression routine (Proc Nlin) in PC SAS version 8.01 (SAS Institute Inc., SAS Version 8.01, Cary, N.C.: SAS Institute Inc., 1990).
In this equation, Fa stands for “fraction affected,” and represents the fraction of the viral load that has been inactivated. […] ED50 is drug concentration that is expected to reduce the amount of virus by 50%, and m is a parameter that reflects the slope of the concentration-response curve.
To assess antiviral effects of different drug combination treatments, combination indices (CIs) were calculated according to Chou and Rideout. The combination index was computed as CI=[D]1/[Dm]1+[D]2/[Dm]2
In this equation [Dm]1 and [Dm]2 are the concentrations of drugs that would individually produce a specific level of effect, while [D]1 and [D]2 are the concentrations of drugs in combination that would produce the same level of effect.
Theoretically, additivity is implied if the CI is equal to one, synergy if the CI is less than one, and antagonism if the CI is greater than one. […] At best, we can construct a range that contains the likely values for the CI, given the noise in the data. In this report, these ranges are reported in parentheses next to each point estimate of the CI. […] If the range fell entirely above 1.0, we would infer antagonistic behavior. If the range were to include 1.0, we would infer additivity.
In carrying out the combination experiments below, the EC50 for Compound 1 and each comparator compound was determined during the course of each study, and used in the subsequent data analysis.

[1] = combination with Compound 1, EC50 ratio 1:1 (Compound 1:comparator)
[2] = combination with Compound 1, EC50 ratio 1:1
[3] = combination with Compound 1, EC50 ratio 1:2.5
[4] = combination with Compound 1, EC50 ratio 2.5:1

SMILES	EC50 [nM]	Combination Indices at % HIV Inhibition (Confidence Interval) 50% [1]	Combination Indices at % HIV Inhibition (Confidence Interval) 75% [2]	Combination Indices at % HIV Inhibition (Confidence Interval) 90% [2]	Combination Indices at % HIV Inhibition (Confidence Interval) 50% [3]	Combination Indices at % HIV Inhibition (Confidence Interval) 75% [3]	Combination Indices at % HIV Inhibition (Confidence Interval) 90% [3]	Combination Indices at % HIV Inhibition (Confidence Interval) 50% [4]	Combination Indices at % HIV Inhibition (Confidence Interval) 75% [4]	Combination Indices at % HIV Inhibition (Confidence Interval) 90% [4]	Overall Result	Overall Result (listed as zalcitabine)	Overall Result (listed as saquinavir)	Overall Result (listed as nelfinavir)	Overall Result (listed as indinavir)	Overall Result (listed as amprenavir)
Nc1ccn([C@H]2CC[C@@H](CO)O2)c(=O)n1 [Zalcitabine, zalcitabine]	110	0.55 (0.41, 0.70)	0.57 (0.36, 0.77)	0.59 (0.25, 0.92)	0.87 (0.65, 1.08)	0.66 (0.44, 0.89)	0.51 (0.24, 0.78)	0.68 (0.48, 0.89)	0.64 (0.37, 0.90)	0.59 (0.20, 0.98)	Synergistic	consistent synergy at all effective levels and concentration ratios				
CC(C)(C)NC(=O)[C@@H]1C[C@@H]2CCCC[C@@H]2CN1C[C@@H](O)[C@H](Cc1ccccc1)NC(=O)[C@H](CC(N)=O)NC(=O)c1ccc2ccccc2n1 [Saquinavir, saquinavir]	9	0.97 (0.88, 1.07)	0.92 (0.76, 1.07)	0.87 (0.65, 1.09)	0.22 (0.20, 0.24)	0.26 (0.22, 0.29)	0.29 (0.24, 0.35)	1.07 (0.95, 1.20)	0.92 (0.74, 1.10)	0.80 (0.45, 1.14)	Additive-		additive to synergistic			
Cc1c(O)cccc1C(=O)N[C@@H](CSc1ccccc1)[C@H](O)CN1C[C@H]2CCCC[C@H]2C[C@H]1C(=O)NC(C)(C)C [Nelfinavir, nelfinavir]	22	0.66 (0.60, 0.73)	0.78 (0.67, 0.88)	0.91 (0.71, 1.10)	0.29 (0.31, 0.46)	0.62 (0.45, 0.79)	0.99 (0.57, 1.41)	0.77 (0.69, 0.86)	0.69 (0.62, 0.77)	0.62 (0.49, 0.75)	Moderate			moderate synergy		
CC(C)(C)NC(=O)[C@@H]1CN(Cc2cccnc2)CCN1C[C@@H](O)C[C@@H](Cc1ccccc1)C(=O)N[C@H]1c2ccccc2C[C@H]1O [Indinavir, indinavir]	0.7	0.55 (0.46, 0.64)	0.57 (0.45, 0.70)	0.61 (0.39, 0.83)	0.35 (0.24, 0.47)	0.21 (0.17, 0.24)	0.32 (0.20, 0.43)	0.31 (0.22, 0.40)	0.41 (0.27, 0.55)	0.54 (0.20, 0.87)	Synergistic				strong synergistic effects	
CC(C)CN(C[C@@H](O)[C@H](Cc1ccccc1)NC(=O)O[C@H]1CCOC1)S(=O)(=O)c1ccc(N)cc1 [Amprenavir, amprenavir]	21	0.89 (0.73, 1.06)	0.93 (0.68, 1.17)	0.96 (0.57, 1.36)	1.30 (0.84, 1.76)	1.08 (0.55, 1.62)	0.90 (0.20, 1.60)	0.41 (0.34, 0.48)	0.32 (0.25, 0.40)	0.25 (0.16, 0.35)	Additive-					additive to synergistic
Nc1nc(NC2CC2)c2ncn([C@H]3C=C[C@@H](CO)C3)c2n1 [Abacavir, abacavir]	400	0.29 (0.16, 0.42)	0.51 (0.20, 0.82)	0.91 (0.03, 1.78)	0.53 (0.36, 0.70)	0.61 (0.33, 0.88)	0.71 (0.21, 1.22)	0.36 (0.27, 0.45)	0.52 (0.34, 0.71)	0.76 (0.34, 1.19)						
O=c1[nH]cnc2c1ncn2[C@H]1CC[C@@H](CO)O1 [Didanosine, didanosine]	1800	1.29 (1.18, 1.40)	0.69 (0.60, 0.78)	0.37 (0.29, 0.44)	0.53 (0.46, 0.60)	0.32 (0.26, 0.38)	0.19 (0.13, 0.25)	0.95 (0.74, 1.17)	0.69 (0.48, 0.90)	0.50 (0.26, 0.74)						
Nc1ccn([C@@H]2CS[C@H](CO)O2)c(=O)n1 [Lamivudine, lamivudine]	140	1.02 (0.80, 1.23)	0.59 (0.42, 0.76)	0.37 (0.21, 0.53)	0.89 (0.76, 1.02)	0.41 (0.34, 0.47)	0.20 (0.15, 0.24)	1.07 (0.95, 1.20)	0.71 (0.58, 0.83)	0.50 (0.36, 0.65)						

Source: patent US20050215543A1, “Methods of treating HIV infection” (priority 2004, published 2005)
